# Entries after “also recorded” stand apart in the source; their conditions may differ. Counter-ions that a name gives are not always drawn. Like-named read-outs stand apart in the source and are kept apart here.
# Assays:
# S. epidermidis SE1 = experiment: MIC, extended Gram-positive panel; format: cell-based; conditions: for MIC: S. epidermidis SE1, in µg/mL
# M6 = experiment: MIC, microdilution broth method; format: cell-based
# [1] = test system: multidrug resistant strains; experiment: Reserpine growth assay in several multidrug resistant strains; format: cell-based; conditions: FIG. 27
# Description: Reserpine was added at a final concentration of 10 g/mL (made up at 40 μg/mL in TSB, 50 μL per well). The bacteria were added at an OD of 0.01 in TSB (100 μL/well). The plate was a normal clear plate as used for MICs. OD was read every 30 minutes for 9 hours (the literature states 7 hours, but this is strain-dependent). Blanks of TSB and water were added to ensure no infections were present.
# S. aureus SA7 = experiment: MIC, extended Gram-positive panel; format: cell-based; conditions: for MIC: S. aureus SA7
# S. aureus SA10 = experiment: MIC, extended Gram-positive panel; format: cell-based; conditions: for MIC: S. aureus SA10, in µg/mL
# S. haemolyticus SH1 = experiment: MIC, extended Gram-positive panel; format: cell-based; conditions: for MIC: S. haemolyticus SH1
# S. aureus SA9 = experiment: MIC, extended Gram-positive panel; format: cell-based; conditions: for MIC: S. aureus SA9
# S. aureus SA8 = experiment: MIC, extended Gram-positive panel; format: cell-based; conditions: for MIC: S. aureus SA8
# E. faecalis EF1 = experiment: MIC, extended Gram-positive panel; format: cell-based; conditions: for MIC: E. faecalis EF1
# S. aureus SA3 = experiment: MIC, extended Gram-positive panel; format: cell-based; conditions: for MIC: S. aureus SA3
# E. faecium EF2 = experiment: MIC, extended Gram-positive panel; format: cell-based; conditions: for MIC: E. faecium EF2, in µg/mL
# S. aureus SA4 = experiment: MIC, extended Gram-positive panel; format: cell-based; conditions: for MIC: S. aureus SA4
# S. aureus SA2 = format: cell-based; conditions: for MIC: S. aureus SA2, in µg/mL
# S. aureus SA1 = format: cell-based; conditions: for MIC: S. aureus SA1
# S. aureus SA6 = experiment: MIC, extended Gram-positive panel; format: cell-based; conditions: for MIC: S. aureus SA6
# S. aureus SA5 = experiment: MIC, extended Gram-positive panel; format: cell-based; conditions: for MIC: S. aureus SA5
# MSSA 9144 strain = experiment: Reserpine assay; format: cell-based, S. aureus; conditions: compound at 0.25×MIC with reserpine
# Description: (§1) A simple plate based method was used as described by Beyer et al. (24). […] Reserpine was added at a final concentration of 10 µg/mL (made up at 40 μg/mL in TSB, 50 μL per well). The bacteria were added at an OD of 0.01 in TSB (100 μL/well). The plate was a normal clear plate as used for MICs. OD was read every 30 minutes for 9 hours (the literature states 7 hours, but this is strain-dependent). Blanks of TSB and water were added to ensure no infections were present.
# (§2) The mechanism of inhibition for reserpine involves direct binding to and competitive inhibition of the efflux pump during drug/H^+ antiport. This assay was validated as a method for testing active efflux of fluoroquinolones in Staphylococcus strains by Beyer et al. (24).
# EMRSA 15 strain = experiment: Reserpine assay; format: cell-based, S. aureus; conditions: compound at 0.25×MIC with reserpine
# Description: as §1, §2
# EMRSA16 = experiment: MIC, microdilution broth method; format: cell-based, Staphylococcus aureus
# EMRSA15 = experiment: MIC, microdilution broth method; format: cell-based, Staphylococcus aureus
# MSSA9144 = experiment: MIC, microdilution broth method; format: cell-based, S. aureus
# VRE12204 = experiment: MIC, microdilution broth method; format: cell-based, E. faecium
# VSE775 = experiment: MIC, microdilution broth method; format: cell-based, E. faecalis
# VRE12201 = experiment: MIC, microdilution broth method; format: cell-based, E. faecalis
# Ab17978 = experiment: MIC, microdilution broth method; format: cell-based
# PA01 = experiment: MIC, microdilution broth method; format: cell-based, Pseudomonas aeruginosa
# EC12923 = experiment: MIC, microdilution broth method; format: cell-based
# KP13368 = experiment: MIC, microdilution broth method; format: cell-based; conditions: Gram-negative, in µg/mL
# [2] = EC12923, Normal (without PMBN), in µg/mL
compound,measurement,setting,value
"O=C(O)c1cn(C2CC2)c2cc(N3CCNCC3)c(F)cc2c1=O [Ciprofloxacin, ciprofloxacin, reference compound]",MIC,S. epidermidis SE1,0.5-1
C[C@H]1COc2c(N3CC[C@@H](Nc4cnccn4)C3)c(F)cc3c(=O)c(C(=O)O)cn1c23 [KSN-BL1],MIC,"M6; Klebsiella pneumoniae (M6), read-out: MIC",0.5 µg/mL
Cc1cc(C)nc(N[C@@H]2CCN(c3c(F)cc4c(=O)c(C(=O)O)cn5c4c3OC[C@@H]5C)C2)n1 [KSN-BL7],efflux from the bacteria (reserpine growth assay),[1],reduced efflux
O=C(O)c1cn(C2CC2)c2cc(N3CCN(Cc4cccc5ccccc45)CC3)c(F)cc2c1=O [ML-77-005],MIC,S. aureus SA7,2 µg/mL
same,MIC,S. aureus SA10,2
same,MIC,S. haemolyticus SH1,4 µg/mL
same,MIC,S. aureus SA9,2 µg/mL
same,MIC,S. aureus SA8,2 µg/mL
same,MIC,E. faecalis EF1,2 µg/mL
same,MIC,S. aureus SA3,2 µg/mL
same,MIC,E. faecium EF2,2
same,MIC,S. aureus SA4,2 µg/mL
same,MIC,S. aureus SA2,0.5
same,MIC,S. aureus SA1,2 µg/mL
same,MIC,S. aureus SA6,2 µg/mL
same,MIC,S. aureus SA5,2 µg/mL
CCn1cc(C(=O)O)c(=O)c2cc(F)c(N3CCN(Cc4cccc5ccccc45)CC3)cc21 [ML-77-021],MIC,S. aureus SA7,2 µg/mL
same,Fold decrease,"S. aureus SA7; SA7, MIC of ML-77-005 vs CIP, of ML-77-021 vs NOR",≥64
same,MIC,S. aureus SA10,2
same,Fold decrease,"S. aureus SA10; SA10, MIC of ML-77-005 vs CIP, of ML-77-021 vs NOR",64
same,MIC,S. haemolyticus SH1,4 µg/mL
same,Fold decrease,"S. haemolyticus SH1; SH1, MIC of ML-77-005 vs CIP, of ML-77-021 vs NOR",32
same,MIC,S. aureus SA9,2 µg/mL
same,Fold decrease,"S. aureus SA9; SA9, MIC of ML-77-005 vs CIP, of ML-77-021 vs NOR",≥64
same,MIC,S. aureus SA8,2 µg/mL
same,Fold decrease,"S. aureus SA8; SA8, MIC of ML-77-005 vs CIP, of ML-77-021 vs NOR",64
same,MIC,S. epidermidis SE1,1
same,Fold decrease,"S. epidermidis SE1; SE1, MIC of ML-77-005 vs CIP, of ML-77-021 vs NOR",1-4
same,MIC,E. faecalis EF1,4 µg/mL
same,Fold decrease,"E. faecalis EF1; EF1, MIC of ML-77-005 vs CIP, of ML-77-021 vs NOR",≥32
same,MIC,S. aureus SA3,2 µg/mL
same,Fold decrease,"S. aureus SA3; SA3, MIC of ML-77-005 vs CIP, of ML-77-021 vs NOR",32
same,MIC,E. faecium EF2,2-4
same,Fold decrease,"E. faecium EF2; EF2, MIC of ML-77-005 vs CIP, of ML-77-021 vs NOR",≥32
same,efflux by the strain (reserpine assay),MSSA 9144 strain,cannot be effluxed; also recorded: not effluxed
same,efflux by the strain (reserpine assay),EMRSA 15 strain,cannot be effluxed
same,efflux by the strain (reserpine assay),EMRSA 15 strain; listed as napthyl-linked norfloxacin,not effluxed
same,MIC,S. aureus SA4,2 µg/mL
same,Fold decrease,"S. aureus SA4; SA4, MIC of ML-77-005 vs CIP, of ML-77-021 vs NOR",32
same,MIC,S. aureus SA2,1
same,Fold decrease,"S. aureus SA2; SA2, MIC of ML-77-005 vs CIP, of ML-77-021 vs NOR",8-64
same,MIC,S. aureus SA1,4 µg/mL
same,Fold decrease,"S. aureus SA1; SA1, MIC of ML-77-005 vs CIP, of ML-77-021 vs NOR",≥32
same,MIC,S. aureus SA6,2 µg/mL
same,Fold decrease,"S. aureus SA6; SA6, MIC of ML-77-005 vs CIP, of ML-77-021 vs NOR",≥64
same,MIC,S. aureus SA5,2 µg/mL
same,Fold decrease,"S. aureus SA5; SA5, MIC of ML-77-005 vs CIP, of ML-77-021 vs NOR",≥64
CCn1cc(C(=O)O)c(=O)c2cc(F)c(N3CCN(Cc4cccc5ccccc45)CC3)nc21 [ML-77-025],fold potentiation of MIC,"EMRSA16; EMRSA16, vs parent fluoroquinolone",64-128 fold
same,fold potentiation of MIC,"EMRSA15; EMRSA15, vs parent fluoroquinolone",64-128 fold
CCn1cc(C(=O)O)c(=O)c2cc(F)c(N3CCN(Cc4ccc5ccccc5c4)CC3)cc21 [ML-77-31],MIC,EMRSA16; EMRSA16,4 µg/mL
same,MIC,MSSA9144,0.25 µg/mL
same,MIC,"M6; M6, in µg/mL",16-32
same,MIC,VRE12204,2 µg/mL
same,MIC,VSE775; VSE775,4 µg/mL
same,MIC,"EMRSA15; EMRSA15, in µg/mL",4
same,MIC,"VRE12201; VRE12201, in µg/mL",4
CCn1cc(C(=O)O)c(=O)c2cc(F)c(N3CCN(Cc4ccc(F)c5ccccc45)CC3)cc21 [ML-77-49],MIC,EMRSA16; EMRSA16,8 µg/mL
same,MIC,MSSA9144,8 µg/mL
same,MIC,VSE775; VSE775,8 µg/mL
same,MIC,"EMRSA15; EMRSA15, in µg/mL",8
same,MIC,"VRE12201; VRE12201, in µg/mL",16
CCn1cc(C(=O)O)c(=O)c2cc(F)c(N3CCN(Cc4ccc(S(=O)(=O)NCCc5c[nH]c6ccccc56)cc4)CC3)cc21 [ML-77-146],MIC +PMBN,"M6; M6, +PMBN",28
same,MIC +PMBN,"Ab17978; Ab17978, +PMBN",4
same,MIC +PMBN,"PA01; PA01, +PMBN",0.25
"C[C@H]1COc2c(N3CCN(c4ccncn4)CC3)c(F)cc3c(=O)c(C(=O)O)cn1c23 [ML-83-001, (S)-9-fluoro-3-methyl-7-oxo-10-(4-(pyrimidin-4-yl)piperazin-1-yl)-2,3-dihydro-7H-[1,4]oxazino[2,3,4-ij]quinoline-6-carboxylic Acid]",MIC,EC12923; [2],1-4
"Cc1cc(N2CCN(c3c(F)cc4c(=O)c(C(=O)O)cn5c4c3OC[C@@H]5C)CC2)nc(C(C)C)n1 [ML-83-012, (S)-9-fluoro-10-(4-(2-isopropyl-6-methylpyrimidin-4-yl)piperazin-1-yl)-3-methyl-7-oxo-2,3-dihydro-7H-[1,4]oxazino[2,3,4-ij]quinoline-6-carboxylic Acid Hydrochloride]",MIC,KP13368,64
same,MIC,"EMRSA16; EMRSA16, Gram-positive",16 µg/mL
same,MIC,"EMRSA16; Staphylococcus aureus, Staphylococcus aureus (EMRSA16)",2 µg/mL
same,MIC,"M6; Klebsiella pneumoniae, Klebsiella pneumoniae (M6)",16 µg/mL
same,MIC,"M6; M6, Gram-negative, in µg/mL",16
same,MIC,"Ab17978; Acinetobacter baumannii, Acinetobacter baumannii (AB17978)",8 µg/mL
same,MIC,VSE775; Enterococcus faecalis,0.5 µg/mL
same,MIC,"VSE775; VSE775, Gram-positive",1 µg/mL
same,MIC,"EC12923; Escherichia coli, Escherichia coli (EC12923)",4 µg/mL
same,MIC,"EMRSA15; EMRSA15, Gram-positive, in µg/mL",16
same,MIC,EMRSA15; Staphylococcus aureus,2 µg/mL
same,MIC,"PA01; Pseudomonas aeruginosa, Pseudomonas aeruginosa (PA01)",32 µg/mL
same,MIC,"VRE12201; Enterococcus faecalis, Enterococcus (VRE12201)",≤ 0.125 µg/mL
same,MIC,"VRE12201; VRE12201, Gram-positive, in µg/mL",0.5-1
C[C@H]1COc2c(N3CCN(c4ccncc4)CC3)c(F)cc3c(=O)c(C(=O)O)cn1c23 [ML-83-019],MIC,"M6; M6, Normal (without PMBN), in µg/mL",64
same,MIC,"Ab17978; Ab17978, Normal (without PMBN)",64 µg/mL
same,MIC,EC12923; [2],32
CCn1cc(C(=O)O)c(=O)c2cc(F)c(N3CCNCC3)cc21 [NOR],MIC,S. epidermidis SE1,1-4
same,MIC,S. aureus SA3,64 µg/mL
same,MIC,S. aureus SA4,64 µg/mL
same,MIC,S. aureus SA2,8-64
"CCn1cc(C(=O)O)c(=O)c2cc(F)c(N3CCNCC3)cc21 [Norfloxacin, norfloxacin, reference compound]",efflux by the strain (reserpine assay),MSSA 9144 strain,effluxed
same,efflux by the strain (reserpine assay),EMRSA 15 strain,effluxed
